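Five concentrations, 48 hours, 96-well plates. The concentration for 50% growth inhibition is given as GI50.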 The source made the active and inactive calls. Cut-off read from the data, not from the text of the source: active = GI50 up to about 1.1 µM and inactive = higher.
Tests used:
Assay in all cases: inhibition of tumour cell growth, NCI panel, 48 h
A498 = test system: A498
CAKI-1 = test system: CAKI-1
MOLT-4 = test system: MOLT-4
K562 = test system: K562
IGROV-1 = test system: IGROV-1
T47D = test system: T47D
UACC-62 = test system: UACC-62
SK-OV-3 = test system: SK-OV-3
SF-539 = test system: SF-539
UACC-257 = test system: UACC-257
U-251 = test system: U-251
MDA-MB-231 = test system: MDA-MB-231
LOX IMVI = test system: LOX IMVI
HL-60 = test system: HL-60
OVCAR-8 = test system: OVCAR-8
TK-10 = test system: TK-10
A549 = test system: A549
MDA-MB-435 = test system: MDA-MB-435
UO-31 = test system: UO-31
CCRF-CEM = test system: CCRF-CEM

Measured: GI50

CC(NCCN(C)C)C1CCC2C3CCc4cc(O)ccc4C3CCC12C (stereo not given)
inactive: A498 4.01 µM | CAKI-1 2.07 µM | MOLT-4 1.85 µM | K562 1.86 µM | IGROV-1 4.97 µM | T47D 2.34 µM | UACC-62 1.93 µM | SK-OV-3 3.69 µM | SF-539 4.76 µM | UACC-257 2.06 µM | U-251 2.07 µM | MDA-MB-231 1.97 µM | LOX IMVI 2.03 µM | HL-60 2.09 µM | OVCAR-8 2.79 µM | TK-10 2.72 µM | A549 3.65 µM | MDA-MB-435 2.05 µM | UO-31 1.81 µM
active: CCRF-CEM 0.723 µM

CC1OC(OC2C(O)COC(OC3C(C)OC(OC4C(OC(=O)[C@]56CCC(C)(C)C[C@@H]5C5=CCC7[C@@]8(C)C[C@H](O)[C@H](OC9OC(CO)C(O)C(OC%10OC(CO)C(O)C(O)C%10O)C9O)[C@@](C)(CO)[C@@H]8CC[C@@]7(C)[C@]5(C)CC6)OCC(O)C4O)C(O)C3OC3OCC(O)C(O)C3O)C2O)C(O)C(O)C1O (stereo not given in full)
inactive: A498 2.15 µM | CAKI-1 4.39 µM | MOLT-4 16.6 µM | K562 16.7 µM | IGROV-1 6.12 µM | T47D 3.96 µM | UACC-62 3.66 µM | SK-OV-3 14.8 µM | SF-539 14.6 µM | UACC-257 4.63 µM | U-251 5.62 µM | MDA-MB-231 3.12 µM | LOX IMVI 13.2 µM | HL-60 3.72 µM | OVCAR-8 13.1 µM | TK-10 10 µM | A549 2.11 µM | MDA-MB-435 2.66 µM | UO-31 3.15 µM | CCRF-CEM 10.4 µM

CN(C)C(=S)N1C(=S)N(c2ccccc2)C(=N/c2ccccc2)/C1=N\c1ccccc1
inactive: A498 > 100 µM | CAKI-1 > 100 µM | MOLT-4 > 100 µM | K562 > 100 µM | IGROV-1 > 100 µM | T47D > 100 µM | UACC-62 > 100 µM | SK-OV-3 > 100 µM | SF-539 > 100 µM | UACC-257 > 100 µM | U-251 > 100 µM | MDA-MB-231 > 100 µM | LOX IMVI > 100 µM | HL-60 > 100 µM | OVCAR-8 > 100 µM | TK-10 > 100 µM | A549 > 100 µM | MDA-MB-435 > 100 µM | UO-31 > 100 µM | CCRF-CEM > 100 µM

CN(C)CCCNC(CC#N)CCC#N (stereo not given)
inactive: A498 > 10 µM | CAKI-1 > 10 µM | MOLT-4 > 10 µM | K562 > 10 µM | IGROV-1 > 10 µM | T47D > 10 µM | UACC-62 > 10 µM | SK-OV-3 > 10 µM | SF-539 > 10 µM | UACC-257 > 10 µM | U-251 > 10 µM | MDA-MB-231 > 10 µM | LOX IMVI > 10 µM | HL-60 > 10 µM | OVCAR-8 > 10 µM | TK-10 > 10 µM | A549 > 10 µM | MDA-MB-435 > 10 µM | UO-31 > 10 µM | CCRF-CEM > 10 µM

CCOC(=O)N1C/C(=C\c2ccccc2)C(=O)/C(=C/c2ccccc2)C1
inactive: A498 18 µM | CAKI-1 2.22 µM | MOLT-4 1.96 µM | K562 1.44 µM | IGROV-1 5.02 µM | T47D 3.65 µM | UACC-62 2.66 µM | SK-OV-3 9.2 µM | SF-539 5.08 µM | UACC-257 4.46 µM | U-251 1.45 µM | MDA-MB-231 2.24 µM | LOX IMVI 1.7 µM | HL-60 1.24 µM | OVCAR-8 2.82 µM | TK-10 8.34 µM | A549 12.3 µM | MDA-MB-435 2.48 µM | UO-31 5.85 µM | CCRF-CEM 1.51 µM

Cc1cc(C)nc(NS(=O)(=O)c2ccc(Nc3c4ccccc4nc4ccc(C(=O)Nc5ccc(S(N)(=O)=O)cc5)cc34)cc2)n1
inactive: A498 > 100 µM | CAKI-1 > 100 µM | MOLT-4 > 100 µM | K562 66.4 µM | IGROV-1 > 100 µM | T47D 78 µM | UACC-62 > 100 µM | SK-OV-3 > 100 µM | SF-539 > 100 µM | UACC-257 > 100 µM | U-251 66.4 µM | MDA-MB-231 20 µM | LOX IMVI 50.6 µM | HL-60 > 100 µM | OVCAR-8 43 µM | TK-10 > 100 µM | A549 > 100 µM | MDA-MB-435 > 100 µM | UO-31 > 100 µM | CCRF-CEM 63.7 µM

C[C@H](CCC(=O)O)[C@H]1CC[C@@]2(C)[C@@H]3C(=O)C[C@H]4C(C)(C)[C@@H](O)CC[C@]4(C)[C@H]3C(=O)C[C@]12C
inactive: A498 > 100 µM | CAKI-1 > 100 µM | MOLT-4 > 100 µM | K562 > 100 µM | IGROV-1 > 100 µM | T47D > 100 µM | UACC-62 > 100 µM | SK-OV-3 > 100 µM | SF-539 > 100 µM | UACC-257 > 100 µM | U-251 > 100 µM | MDA-MB-231 > 100 µM | LOX IMVI > 100 µM | HL-60 25.1 µM | OVCAR-8 > 100 µM | TK-10 > 100 µM | A549 > 100 µM | MDA-MB-435 > 100 µM | UO-31 13.9 µM | CCRF-CEM > 100 µM

O=C1c2ccccc2-c2[nH]c3cn[nH]c(=O)c3c21
inactive: A498 33.5 µM | CAKI-1 91.6 µM | MOLT-4 > 100 µM | K562 61.2 µM | IGROV-1 23.1 µM | T47D > 100 µM | UACC-62 45.3 µM | SK-OV-3 > 100 µM | SF-539 > 100 µM | UACC-257 > 100 µM | U-251 > 100 µM | MDA-MB-231 97.5 µM | LOX IMVI 78.5 µM | HL-60 > 100 µM | OVCAR-8 > 100 µM | TK-10 > 100 µM | A549 > 100 µM | MDA-MB-435 48.6 µM | UO-31 23.8 µM | CCRF-CEM > 100 µM

— ChEMBL document CHEMBL1201862, “PubChem BioAssay data set” (2004)
